# Assays:
# [1] = Dynamic Vapour Sorption (DVS) hygroscopicity; type: physicochemical; settings: 25° C., water, humidity change 0-95-0-95-0% RH; FIGS. 8 and 9
# Description: 3. Dynamic Vapour Sorption, DVS
# Instrument type: DVS advantage
# The crude product N-((4,6-dimethyl-2-oxo-1,2-dihydropyridin-3 -yl)methyl)-5 -ethyl-6-(ethyl(tetrahydro-2 H-pyran-4-yl)amino)-2-(piperidin-1-ylmethyl)benzofuran-4-carboxamide (50 mg, 0.091 mmol) obtained in Comparative example 1 was added to a reaction flask, and methanol (100 μL) was added. The solution was stirred at 25° C. for five days, filtrated and dried under vacuum to obtain a white to pale yellow powder. The DSC spectrum is shown in FIG. 7, in which the onset melting temperature is about 205.45° C.
# [2] = Long-term, accelerated stability of crystal forms B and D (XRPD); type: physicochemical; settings: Day 20; for change of XRPD peaks / crystal form stability: spread flat in the air
# Description: 2. X-ray Powder Diffraction, XRPD
# Instrument type: BRUKER D8 Discover A25 X-ray powder diffractometer
# Ray: monochromatic Cu—Kα ray (λ=1.5406 Å)
# Scanning mode: θ/2,θ Scanning range: 10-48°
# Voltage: 40 kV, Electric current: 40 mA
# The sample of crystal form B was spread flat in the air to test sample stability under conditions of 25° C.-65% relative humidity (RH), and the sampling time was Day 20. The sample of crystal form D was spread flat in the air to test sample stability under conditions of 40° C.-75% RH and 25° C.-65% RH, and the sampling time was Day 20.
SMILES,hygroscopicity (DVS diagrams) [1],physical stability compared between crystal forms ([2]; 25° C.-65%RH),change of XRPD peaks / crystal form stability ([2]; 40° C.-75% RH),change of XRPD peaks / crystal form stability ([2]; 25° C.-65% RH)
"CCc1c(N(CC)C2CCOCC2)cc2oc(CN3CCCCC3)cc2c1C(=O)NCc1c(C)cc(C)[nH]c1=O [crystal form D, N-((4,6-dimethyl-2-oxo-1,2-dihydropyridin-3-yl)methyl)-5-ethyl-6-(ethyl(tetrahydro-2 H-pyran-4-yl)amino)-2-(piperidin-1-ylmethyl)benzofuran-4-carboxamide]",no obvious hygroscopicity,better than that of crystal form B,has not changed substantially,
"CCc1c(N(CC)C2CCOCC2)cc2oc(CN3CCCCC3)cc2c1C(=O)NCc1c(C)cc(C)[nH]c1=O [crystal form B, N-((4,6-dimethyl-2-oxo-1,2-dihydropyridin-3-yl)methyl)-5-ethyl-6-(ethyl(tetrahydro-2 H-pyran-4-yl)amino)-2-(piperidin-1-ylmethyl)benzofuran-4-carboxamide]",,,,has changed significantly

# Reference: US11155537B2, “Crystal of benzofuran derivative free base and preparation method” (Jiangsu Hengrui Medicine Co., Ltd., priority 2017, dated 2021)
